In US11111238B2, “Coumarin derivatives, processes for their preparation and uses thereof for the treatment of cancer” (Lead Discovery Center GmbH, priority 2017, dated 2021):

Columns and labels:
[1] = system: mitochondrial transcription (7S RNA) in HeLa cells; assay: Quantitative real time-PCR assay of inhibition of mitochondrial transcription (cellular qPCR assay IMT); format: cell-based; details: Homo sapiens, 4 h compound incubation, qRT-PCR according to Example 5, activity class
Method in brief: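 HeLa cells were exposed 4 h to compound dilution series or DMSO. Mitochondrial 7S RNA, with POLRMT for nuclear transcription, was measured by TaqMan qRT-PCR, normalised to TBP. Biological triplicates were analysed by ΔΔCt and expressed as Rq % (2^-ΔΔCt).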

CA-46 (lymphoma) = assay: CellTiter GLO viability assay, CA-46; format: cell-based; details: Homo sapiens, CA46, 144 h, read-out: IC50 (μM) incubation time 144 h
Experimental: (§1) The CellTiter-Glo Luminescent Cell Viability Assay (Promega) is a homogeneous method of determining the number of viable cells in culture. It is based on quantification of ATP, indicating the presence of metabolically active cells.
(§2) […] After incubation for 3 h in humidified chambers at 37° C./5% CO2 compounds/DMSO were added at different concentrations. […] Cells treated with the compound vehicle DMSO were used as positive controls and cells treated with 10 μM Staurosporine served as negative controls. […] Thereon, mixture and assay plates were equilibrated at room temperature for 20 min. Equal volumes of the reagent-medium-mixture was added to the volume of culture medium present in each well.
(§3) The plates were mixed at ˜200 rpm for 2 minutes on an orbital shaker. The microplates were then incubated at room temperature for 10 minutes for stabilization of the luminescent signal. Following incubation the luminescence is recorded on a Victor microplate reader (Perkin Elmer) using 200 ms integration time. The data were then analyzed with Excel using the XLFIT Plugin (dose response Fit 205) for IC50-determination. As quality control the Z′-factor was calculated from 16 positive and negative control values. Only assay results showing a Z′-factor≥0.5 were used for further analysis.

HEC-59 (endometrial) = assay: CellTiter GLO viability assay, HEC-59; format: cell-based; details: 144 h, read-out: IC50 (μM) incubation time 144 h
Experimental: as §1
(§4) Cells were seeded on day 1 at cell numbers that assure assay linearity and optimal signal intensity. After incubation for 3 h in humidified chambers at 37° C./5% CO2 compounds/DMSO were added at different concentrations. […] Cells treated with the compound vehicle DMSO were used as positive controls and cells treated with 10 μM Staurosporine served as negative controls. […] Thereon, mixture and assay plates were equilibrated at room temperature for 20 min. Equal volumes of the reagent-medium-mixture was added to the volume of culture medium present in each well.
as §3

HRT-18 (colon) = assay: CellTiter GLO viability assay, HRT-18; format: cell-based; details: Homo sapiens, 144 h, read-out: IC50 (μM) incubation time 144 h
Experimental: as §1, §4, §3

NCI-H1299 (lung) = assay: CellTiter GLO viability assay, NCI-H1299; format: cell-based; details: Homo sapiens, 144 h, read-out: IC50 (μM) incubation time 144 h
Experimental: as §1, §4, §3

NCI-H23 (lung) = assay: CellTiter GLO viability assay, NCI-H23; format: cell-based
Experimental: as §1, §4, §3

NCI-H596 (lung) = assay: CellTiter GLO viability assay, NCI-H596; format: cell-based; details: Homo sapiens, 144 h, read-out: IC50 (μM) incubation time 144 h
Experimental: as §1, §4, §3

SW403 (colon) = assay: CellTiter GLO viability assay, SW403; format: cell-based; details: Homo sapiens, SW-403, 144 h, read-out: IC50 (μM) incubation time 144 h
Experimental: as §1, §2, §3

SW48 (colon) = assay: CellTiter GLO viability assay, SW48; format: cell-based; details: Homo sapiens, 144 h, read-out: IC50 (μM) incubation time 144 h
Experimental: as §1, §4, §3

SW948 (colon) = assay: CellTiter GLO viability assay, SW948; format: cell-based; details: Homo sapiens, 144 h, read-out: IC50 (μM) incubation time 144 h
Experimental: as §1, §4, §3

[2] = system: human DLD-1 colon carcinoma xenograft; assay: Therapeutic effect on human DLD-1 colon carcinoma xenograft in nude mice
Experimental: DLD-1 colon carcinoma cells (5×10^6 cells in 100 μL of PBS/Matrigel), isolated during exponential growth phase from in vitro cell culture, were transplanted s.c. into each female BALB/c nude mouse at day 0. Mice were kept under strictly controlled and standardized barrier conditions in IVC.
Sorafenib) (Nexavar®, which is an approved multi-kinase inhibitor/cytostatic from Bayer A G, was used as a positive control. Body weight and tumor volume (TV) were monitored two to three times per week.
Mice of groups 3, 4 and 5 were treated again at the end of the study period and blood samples were taken to generate plasma 1 h prior and 1 h post treatment. In addition, tumor and tissue samples were isolated, divided into two parts and snap frozen in liquid nitrogen. Mice of groups 1-5 were sacrificed at day 39. Gross autopsy was performed from all mice.

C[C@@H](Oc1ccc2c(-c3ccc(F)cc3Cl)cc(=O)oc2c1)C(=O)N1CCC[C@H](C(=O)O)C1 [Compound 14, (3S)-1-[(2R)-2-[4-(2-chloro-4-fluoro-phenyl)-2-oxo-chromen-7-yl]oxypropanoyl]piperidine-3-carboxylic acid]
IC50 [1]: < 10 nM | IC50 (CA-46 (lymphoma)): ≤ 0.1 µM | IC50 (HEC-59 (endometrial)): > 10 µM | IC50 (HRT-18 (colon)): ≤ 0.1 µM | IC50 (NCI-H1299 (lung)): 0.1 to 1 µM | IC50 (NCI-H23 (lung); Homo sapiens, NCI-H23 (lung), 144 h, read-out: IC50 (μM) incubation time 144 h): 1 to 10 µM | sensitivity of the cell line (in words) (NCI-H23 (lung); NCl-H23): moderate sensitivity | IC50 (NCI-H596 (lung)): 1 to 10 µM | IC50 (SW403 (colon)): ≤ 0.1 µM | IC50 (SW48 (colon)): 0.1 to 1 µM | IC50 (SW948 (colon)): 0.1 to 1 µM | Tolerability ([2]; DLD-1 xenograft, p.o. QD × 28 days): well tolerated | Therapeutic effect: tumor growth inhibition ([2]; all doses): dose-dependent tumor growth inhibition | Therapeutic effect: tumor growth inhibition ([2]; lowest dose (50 mg/kg)): minor effect
